Values quoted from earlier work, collected in patent US20110130355A1, “USE OF SOPHORICOSIDE IN THE MANUFACTURE OF MEDICAMENTS” (priority 2008, published 2011).
Where two headings read alike, the source gives them in different places.

Tests used:
[1] = system: femoral-metaphyseal tissues; conditions: in vitro, tissues from aging female rats; cited from earlier work
ovariectomized rats = conditions: cited from earlier work
[2] = system: rabbit articular chondrocytes; conditions: cited from earlier work

| Compound | contents of alkaline phosphatase, DNA and calcium in the femoral-metaphyseal tissues [1] | loss of bone mass (ovariectomized rats) | degradation of proteoglycan induced by interleukin (IL) 1β ([2]; high concentration, 10 nmol/l) | degradation of proteoglycan induced by interleukin (IL) 1β ([2]; low concentration, 0.1 nmol/l) |
| --- | --- | --- | --- | --- |
| O=c1c(-c2ccc(O)cc2)coc2cc(O[C@@H]3O[C@H](CO)[C@@H](O)[C@H](O)[C@H]3O)cc(O)c12 [genistin, genistein-7-O-glucopyranoside] | substantially increases | prevent loss of bone mass | – | – |
| O=c1c(-c2ccc(O)cc2)coc2cc(O)cc(O)c12 [genistein] | substantially increases | – | – | – |
| C[C@]12CC[C@@H]3c4ccc(O)cc4CC[C@H]3[C@@H]1CC[C@@H]2O [17β-estradiol] | – | – | increased its effect | inhibited the degradation of proteoglycan induced by interleukin (IL) 1β |
